Data as given in patent publication US4404217A, “3-Indolyl alkylene amino propanols and cardiovascular compositions thereof” (C. M. Industries, priority 1979, dated 1983).
pEC50, pIC50: −log10 of the molar value.

test system: α1 receptor; experiment: Displacement of 3H WB 4101, plasmic membranes of rat brains; assay type: binding; details: in vitro
Protocol: (§1) The binding tests are effected on suspensions of plasmic membranes coming from various organs. The suspensions of membranes are placed in incubation with the tritiated ligand and various concentrations of products to be tested. After incubation, each test is filtered on GFB(Whatman) filter, the filters are dried and introduced into counting flasks. The measurement of the radioactivity is assessed by scintillation in a liquid medium.
(§2) The tests were made on plasmic membranes of rat brains, in the presence of ^3 H clonidine 1.2×10^-9 M (α2 receptor) and of ^3 H WB4101 (N-[2-(2.6dimethoxyphenoxy)ethyl]1.4benzodioxane-2-methylamine), 0.2×10^-9 M (α1 receptor).

Structure (SMILES)	affinity for the receptor with WB 4101 (α1)
Cc1ccccc1OCC(O)CNC(C)Cc1c[nH]c2ccccc12 (centres unmarked) [compound 7744]	have an affinity
CC(Cc1c[nH]c2ccccc12)NCC(O)COc1ccccc1[N+](=O)[O-] (centres unmarked) [compound 7808]	have an affinity
CC(Cc1c[nH]c2ccccc12)NCC(O)COc1ccccc1C#N (centres unmarked) [compound 7824]	have an affinity
CC(Cc1c[nH]c2ccccc12)NCC(O)COc1cccc2[nH]ccc12 (centres unmarked) [compound 7874]	have an affinity

same assay, conditions: read-out: EC50 of DISPLACEMENT of 3H WB 4101; rat brain membranes; 3H WB4101 0.2×10^-9 M

Structure (SMILES)	pEC50
Cc1ccccc1OCC(O)CNC(C)Cc1c[nH]c2ccccc12 (centres unmarked) [compound 7744]	6.30
CC(Cc1c[nH]c2ccccc12)NCC(O)COc1ccccc1[N+](=O)[O-] (centres unmarked) [compound 7808]	6.49
CC(Cc1c[nH]c2ccccc12)NCC(O)COc1ccccc1C#N (centres unmarked) [compound 7824]	6.96
CC(Cc1c[nH]c2ccccc12)NCC(O)COc1cccc2[nH]ccc12 (centres unmarked) [compound 7874]	6.67
Cc1ccccc1OC[C@H](O)CN[C@H](CO)Cc1c[nH]c2ccccc12 [compound 7903]	8.72

test system: platelet aggregation; experiment: Anti-aggregating activity, BORN technique, plasma rich in platelets, ADP; assay type: cell-based, human; details: Homo sapiens, Platelet, read-out: concentration for inhibiting by 50% the maximum rate of aggregation
Protocol: The anti-aggregating activity of the CM 7743, 7744, 7824, 7854, 7859 and 7874 has been studied according to the BORN technique on plasma rich in platelets of human origin. ADP has been used as indicator of platelet aggregation. […] The required concentration for inhibiting by 50% the maximum rate of aggregation varies from 45 to 100 μM.

Structure (SMILES)	pIC50
Cc1ccccc1OCC(O)CNC(C)Cc1c[nH]c2ccccc12 (centres unmarked) [compound 7744]	4.00 to 4.35
CC(Cc1c[nH]c2ccccc12)NCC(O)COc1ccccc1C#N (centres unmarked) [compound 7824]	4.00 to 4.35
CC(Cc1c[nH]c2ccccc12)NCC(O)COc1cccc2[nH]ccc12 (centres unmarked) [compound 7874]	4.00 to 4.35

same assay, conditions: human platelet-rich plasma

Structure (SMILES)	inhibition of the platelet response with respect to the ADP
Cc1ccccc1OCC(O)CNC(C)Cc1c[nH]c2ccccc12 (centres unmarked) [compound 7744]	inhibited the platelet response
CC(Cc1c[nH]c2ccccc12)NCC(O)COc1ccccc1C#N (centres unmarked) [compound 7824]	inhibited the platelet response
CC(Cc1c[nH]c2ccccc12)NCC(O)COc1cccc2[nH]ccc12 (centres unmarked) [compound 7874]	inhibited the platelet response

target: T1, β adrenergic receptors (β2) (Canis lupus familiaris, UniProt P54833); experiment: Antagonism of the effects of isoprenaline, hypotension (β2), anaesthetized dog, IV; assay type: in vivo; details: IV, 50% inhibition of isoprenaline hypotension, read-out: ID50 ISOPRENALINE β2
T1 construct: The dog is anaesthetized using sodium pentobarbital; from tissue; host or cells: whole anaesthetized dog (vasculature)
Protocol: (§3) The dog is anaesthetized using sodium pentobarbital, administered by the IV route at a dose of 30 mg/kg. A cannula placed in the saphenous vein allows the intra-venous injections of the products. The animal is submitted to intubation and is allowed to breathe spontaneously.
(§4) The cardiac frequency and the systemic arterial pressure are studied and the variations of these parameters are observed after intra-venous injection of the product to be tested. Each product is tested with increasing doses.
The antagonism of the products with respect to the β stimulant cardio-vascular effects of isoprenaline on the β adrenergic receptors has been sought. […] The last column indicates the cardioselectivity (β1 >β2) or a low cardioselectivity β1 ≥β2, or no cardioselectivity β1 <β2 and β1 =β2.

T1 sequence (P54833 whole entry): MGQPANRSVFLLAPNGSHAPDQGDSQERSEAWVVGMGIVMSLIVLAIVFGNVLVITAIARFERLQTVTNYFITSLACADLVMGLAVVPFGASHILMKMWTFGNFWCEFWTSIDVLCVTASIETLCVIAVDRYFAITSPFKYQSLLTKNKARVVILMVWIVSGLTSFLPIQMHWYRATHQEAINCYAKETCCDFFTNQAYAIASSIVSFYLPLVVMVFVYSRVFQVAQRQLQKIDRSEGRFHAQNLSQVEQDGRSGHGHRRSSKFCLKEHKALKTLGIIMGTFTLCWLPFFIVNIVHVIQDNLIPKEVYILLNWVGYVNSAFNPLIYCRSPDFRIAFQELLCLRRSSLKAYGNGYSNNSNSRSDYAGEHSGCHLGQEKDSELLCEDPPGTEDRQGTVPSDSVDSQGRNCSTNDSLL

Structure (SMILES)	ED50
Cc1ccccc1OCC(O)CNC(C)Cc1c[nH]c2ccccc12 (centres unmarked) [compound 7744]	≥ 0.3 mg/kg
CC(Cc1c[nH]c2ccccc12)NCC(O)COc1cccc2[nH]ccc12 (centres unmarked) [compound 7874]	0.01 to 0.03 mg/kg
Cc1ccccc1OC[C@H](O)CN[C@H](CO)Cc1c[nH]c2ccccc12 [compound 7903]	1 mg/kg

same assay, conditions: iv, read-out: ID50 ISOPRENALINE β2

Structure (SMILES)	ED50
CC(Cc1c[nH]c2ccccc12)NCC(O)COc1ccccc1[N+](=O)[O-] (centres unmarked) [compound 7808]	1 mg/kg
CC(Cc1c[nH]c2ccccc12)NCC(O)COc1ccccc1C#N (centres unmarked) [compound 7824]	≥ 0.3 mg/kg

test system: α adrenergic receptors; experiment: Antagonism of the effects of noradrenaline (pressure response), anaesthetized dog, IV; assay type: in vivo; details: 50% inhibition of pressure response to noradrenaline
Protocol: as §3, §4
The antagonism of the products with respect to the vascular effects provoked by the IV administration of noradrenaline on the α adrenergic receptors has been sought. The results presented in Table III are expressed in ID50 : it is the dose (mg/kg) which provokes the inhibition by 50% of the pressure response due to the IV administration of noradrenaline.

Structure (SMILES)	ID50 NORADRENALINE α
Cc1ccccc1OCC(O)CNC(C)Cc1c[nH]c2ccccc12 (centres unmarked) [compound 7744]	0.1 to 1 mg/kg
CC(Cc1c[nH]c2ccccc12)NCC(O)COc1ccccc1[N+](=O)[O-] (centres unmarked) [compound 7808]	0.3 mg/kg
CC(Cc1c[nH]c2ccccc12)NCC(O)COc1ccccc1C#N (centres unmarked) [compound 7824]	1 mg/kg
CC(Cc1c[nH]c2ccccc12)NCC(O)COc1cccc2[nH]ccc12 (centres unmarked) [compound 7874]	> 0.03 mg/kg
Cc1ccccc1OC[C@H](O)CN[C@H](CO)Cc1c[nH]c2ccccc12 [compound 7903]	3 mg/kg

target: T2, β2 receptors (Rattus norvegicus, UniProt P10608); experiment: Displacement of 3H dihydroalprenolol, plasmic membranes of lungs of rats; assay type: binding; details: not given
T2 construct: lungs of rats (β2 receptors); from tissue; host or cells: rat lung plasma membranes
Protocol: as §1
(§5) The tests were made on plasmic membranes of hearts of dogs (β1 receptor) and lungs of rats (β2 receptors), in the presence of ^3 H dihydroalprenolol 4×10^-9 M.

T2 sequence (P10608 whole entry): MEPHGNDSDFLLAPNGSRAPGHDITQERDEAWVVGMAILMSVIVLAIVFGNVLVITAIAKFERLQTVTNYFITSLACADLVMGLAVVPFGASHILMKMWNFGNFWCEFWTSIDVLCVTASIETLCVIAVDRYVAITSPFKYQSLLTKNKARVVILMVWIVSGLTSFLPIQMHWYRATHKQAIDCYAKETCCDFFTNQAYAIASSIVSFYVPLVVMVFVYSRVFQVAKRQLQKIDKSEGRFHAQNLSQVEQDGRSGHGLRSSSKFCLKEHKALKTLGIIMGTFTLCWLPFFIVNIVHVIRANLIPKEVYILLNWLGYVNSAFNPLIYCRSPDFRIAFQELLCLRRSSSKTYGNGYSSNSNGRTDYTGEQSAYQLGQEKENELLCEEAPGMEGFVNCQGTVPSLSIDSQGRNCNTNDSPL

Structure (SMILES)	pEC50
Cc1ccccc1OCC(O)CNC(C)Cc1c[nH]c2ccccc12 (centres unmarked) [compound 7744]	7.28
CC(Cc1c[nH]c2ccccc12)NCC(O)COc1ccccc1[N+](=O)[O-] (centres unmarked) [compound 7808]	7.62
CC(Cc1c[nH]c2ccccc12)NCC(O)COc1ccccc1C#N (centres unmarked) [compound 7824]	8.00
CC(Cc1c[nH]c2ccccc12)NCC(O)COc1cccc2[nH]ccc12 (centres unmarked) [compound 7874]	8.09

same assay, conditions: rat lung membranes; 3H dihydroalprenolol 4×10^-9 M

Structure (SMILES)	pEC50
Cc1ccccc1OC[C@H](O)CN[C@H](CO)Cc1c[nH]c2ccccc12 [compound 7903]	5.70

target: T3, α2 receptor (Rattus norvegicus, UniProt P22909); experiment: Displacement of 3H clonidine, plasmic membranes of rat brains; assay type: binding; details: not given
T3 construct: plasmic membranes of rat brains; from tissue; host or cells: rat brain plasma membranes
T3 sequence (P22909 1-465): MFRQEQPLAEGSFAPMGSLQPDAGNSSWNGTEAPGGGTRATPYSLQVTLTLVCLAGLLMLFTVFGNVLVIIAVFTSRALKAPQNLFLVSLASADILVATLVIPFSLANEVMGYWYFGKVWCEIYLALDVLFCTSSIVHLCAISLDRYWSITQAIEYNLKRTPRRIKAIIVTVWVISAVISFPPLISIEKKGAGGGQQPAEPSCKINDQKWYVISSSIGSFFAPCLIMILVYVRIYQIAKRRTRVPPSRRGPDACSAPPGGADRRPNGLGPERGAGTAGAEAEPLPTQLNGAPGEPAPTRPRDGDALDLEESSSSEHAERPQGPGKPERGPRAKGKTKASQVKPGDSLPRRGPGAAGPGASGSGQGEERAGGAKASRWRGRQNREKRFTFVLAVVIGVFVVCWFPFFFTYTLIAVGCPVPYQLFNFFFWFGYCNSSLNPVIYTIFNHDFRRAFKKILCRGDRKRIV
Protocol: as §1, §2

Structure (SMILES)	pEC50
Cc1ccccc1OCC(O)CNC(C)Cc1c[nH]c2ccccc12 (centres unmarked) [compound 7744]	7.69
CC(Cc1c[nH]c2ccccc12)NCC(O)COc1ccccc1[N+](=O)[O-] (centres unmarked) [compound 7808]	7.60
CC(Cc1c[nH]c2ccccc12)NCC(O)COc1cccc2[nH]ccc12 (centres unmarked) [compound 7874]	7.70

same assay, conditions: in vitro

Structure (SMILES)	affinity for the receptor with clonidine (α2)
CC(Cc1c[nH]c2ccccc12)NCC(O)COc1ccccc1[N+](=O)[O-] (centres unmarked) [compound 7808]	no affinity
CC(Cc1c[nH]c2ccccc12)NCC(O)COc1ccccc1C#N (centres unmarked) [compound 7824]	no affinity
Cc1ccccc1OC[C@H](O)CN[C@H](CO)Cc1c[nH]c2ccccc12 [compound 7903]	no affinity

same assay, conditions: rat brain membranes; 3H clonidine 1.2×10^-9 M

Structure (SMILES)	pEC50
Cc1ccccc1OC[C@H](O)CN[C@H](CO)Cc1c[nH]c2ccccc12 [compound 7903]	7.53

test system: not listed separately; experiment: Cardiac frequency and arterial pressure in the anaesthetized dog after intravenous injection; assay type: in vivo; details: i.v. route, anaesthetised dog
Protocol: as §3, §4

Structure (SMILES)	reduction in the peripheral arterial pressure
Cc1ccccc1OCC(O)CNC(C)Cc1c[nH]c2ccccc12 (centres unmarked) [compound 7744]	reduction in the peripheral arterial pressure
CC(Cc1c[nH]c2ccccc12)NCC(O)COc1ccccc1[N+](=O)[O-] (centres unmarked) [compound 7808]	reduction in the peripheral arterial pressure
CC(Cc1c[nH]c2ccccc12)NCC(O)COc1ccccc1C#N (centres unmarked) [compound 7824]	reduction in the peripheral arterial pressure
CC(Cc1c[nH]c2ccccc12)NCC(O)COc1cccc2[nH]ccc12 (centres unmarked) [compound 7874]	reduction in the peripheral arterial pressure
Cc1ccccc1OC[C@H](O)CN[C@H](CO)Cc1c[nH]c2ccccc12 [compound 7903]	reduction in the peripheral arterial pressure

target: T4, β1 receptor (Canis lupus familiaris, UniProt P79148); experiment: Displacement of 3H dihydroalprenolol, plasmic membranes of hearts of dogs; assay type: binding, dog; details: not given
T4 construct: plasmic membranes of hearts of dogs (β1 receptor); from tissue; host or cells: dog heart plasma membranes
Protocol: as §1, §5

T4 sequence (P79148 whole entry): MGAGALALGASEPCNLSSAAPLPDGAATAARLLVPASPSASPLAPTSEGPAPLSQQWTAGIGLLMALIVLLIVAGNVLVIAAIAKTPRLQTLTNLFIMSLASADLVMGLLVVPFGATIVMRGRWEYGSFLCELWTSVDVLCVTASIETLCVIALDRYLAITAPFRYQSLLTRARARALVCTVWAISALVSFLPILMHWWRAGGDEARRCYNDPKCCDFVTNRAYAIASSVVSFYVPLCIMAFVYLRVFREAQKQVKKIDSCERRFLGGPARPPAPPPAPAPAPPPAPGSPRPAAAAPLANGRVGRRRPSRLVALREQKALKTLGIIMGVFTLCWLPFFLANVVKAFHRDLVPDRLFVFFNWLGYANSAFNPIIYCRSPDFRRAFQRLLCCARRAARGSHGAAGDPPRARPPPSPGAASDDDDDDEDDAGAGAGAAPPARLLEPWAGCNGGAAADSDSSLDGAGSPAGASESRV

Structure (SMILES)	pEC50
Cc1ccccc1OCC(O)CNC(C)Cc1c[nH]c2ccccc12 (centres unmarked) [compound 7744]	7.51
CC(Cc1c[nH]c2ccccc12)NCC(O)COc1ccccc1[N+](=O)[O-] (centres unmarked) [compound 7808]	7.55
CC(Cc1c[nH]c2ccccc12)NCC(O)COc1ccccc1C#N (centres unmarked) [compound 7824]	7.87
CC(Cc1c[nH]c2ccccc12)NCC(O)COc1cccc2[nH]ccc12 (centres unmarked) [compound 7874]	8.40

same assay, conditions: dog heart membranes; 3H dihydroalprenolol 4×10^-9 M

Structure (SMILES)	pEC50
Cc1ccccc1OC[C@H](O)CN[C@H](CO)Cc1c[nH]c2ccccc12 [compound 7903]	5.69

target: T5, β adrenergic receptors (β1) (Canis lupus familiaris, UniProt P79148); experiment: Antagonism of the effects of isoprenaline, tachycardia (β1), anaesthetized dog, IV; assay type: in vivo; details: dog, IV; 50% inhibition of isoprenaline tachycardia; read-out: ID50 ISOPRENALINE β1
T5 construct: The dog is anaesthetized using sodium pentobarbital; from tissue; host or cells: whole anaesthetized dog (heart)
T5 sequence (P79148 whole entry): as above

Structure (SMILES)	ED50
Cc1ccccc1OC[C@H](O)CN[C@H](CO)Cc1c[nH]c2ccccc12 [compound 7903]	3 mg/kg

same assay, conditions: dog, IV; isoprenaline antagonism, β1 versus β2

Structure (SMILES)	cardioselectivity β1 - β2
Cc1ccccc1OCC(O)CNC(C)Cc1c[nH]c2ccccc12 (centres unmarked) [compound 7744]	β1 > β2 (cardioselectivity (β1 >β2))
CC(Cc1c[nH]c2ccccc12)NCC(O)COc1ccccc1[N+](=O)[O-] (centres unmarked) [compound 7808]	β1 > β2 (cardioselectivity (β1 >β2))
CC(Cc1c[nH]c2ccccc12)NCC(O)COc1ccccc1C#N (centres unmarked) [compound 7824]	β1 ≥ β2 (low cardioselectivity β1 ≥β2)
CC(Cc1c[nH]c2ccccc12)NCC(O)COc1cccc2[nH]ccc12 (centres unmarked) [compound 7874]	β1 ≥ β2 (low cardioselectivity β1 ≥β2)
Cc1ccccc1OC[C@H](O)CN[C@H](CO)Cc1c[nH]c2ccccc12 [compound 7903]	β1 < β2 (no cardioselectivity β1 <β2)

same assay, conditions: dog, iv, read-out: ID50 ISOPRENALINE β1

Structure (SMILES)	ED50
Cc1ccccc1OCC(O)CNC(C)Cc1c[nH]c2ccccc12 (centres unmarked) [compound 7744]	0.1 mg/kg
CC(Cc1c[nH]c2ccccc12)NCC(O)COc1ccccc1[N+](=O)[O-] (centres unmarked) [compound 7808]	0.3 mg/kg
CC(Cc1c[nH]c2ccccc12)NCC(O)COc1ccccc1C#N (centres unmarked) [compound 7824]	0.3 mg/kg
CC(Cc1c[nH]c2ccccc12)NCC(O)COc1cccc2[nH]ccc12 (centres unmarked) [compound 7874]	0.01 mg/kg

same assay, conditions: test with isoprenaline

Structure (SMILES)	cardioselective in vivo (selectively inhibit the cardiac receptors)
Cc1ccccc1OCC(O)CNC(C)Cc1c[nH]c2ccccc12 (centres unmarked) [compound 7744]	cardioselective in vivo
CC(Cc1c[nH]c2ccccc12)NCC(O)COc1ccccc1[N+](=O)[O-] (centres unmarked) [compound 7808]	cardioselective in vivo
